In the kinase profiling compilation of Christmann-Franck et al. (2016):
Several values for one entry are separate records, joined by “and”; a condition that tells them apart may be missing. Identical values can stand only once.

Legend:
Assay in all cases: radiometric filter-binding kinase assay, Kinase HotSpot
Details in all cases: compound 0.5 µM; ATP 10 µM
CDK4 CCND1 (human) = CDK4 CCND1 (human) (UniProt P24385+P11802)
ACVRL1 (human) = ACVRL1 (human) (UniProt P37023)
ROS1 (human) = ROS1 (human) (UniProt P08922)
MAP3K5 (human) = MAP3K5 (human) (UniProt Q99683)
ULK1 (human) = ULK1 (human) (UniProt O75385)
NUAK1 (human) = NUAK1 (human) (UniProt O60285)
STK3 (human) = STK3 (human) (UniProt Q13188)
PHKG2 (human) = PHKG2 (human) (UniProt P15735)
PAK7 (human) = PAK7 (human) (UniProt Q9P286)
PAK7 (human), sequence (Q9P286 whole entry, looked up): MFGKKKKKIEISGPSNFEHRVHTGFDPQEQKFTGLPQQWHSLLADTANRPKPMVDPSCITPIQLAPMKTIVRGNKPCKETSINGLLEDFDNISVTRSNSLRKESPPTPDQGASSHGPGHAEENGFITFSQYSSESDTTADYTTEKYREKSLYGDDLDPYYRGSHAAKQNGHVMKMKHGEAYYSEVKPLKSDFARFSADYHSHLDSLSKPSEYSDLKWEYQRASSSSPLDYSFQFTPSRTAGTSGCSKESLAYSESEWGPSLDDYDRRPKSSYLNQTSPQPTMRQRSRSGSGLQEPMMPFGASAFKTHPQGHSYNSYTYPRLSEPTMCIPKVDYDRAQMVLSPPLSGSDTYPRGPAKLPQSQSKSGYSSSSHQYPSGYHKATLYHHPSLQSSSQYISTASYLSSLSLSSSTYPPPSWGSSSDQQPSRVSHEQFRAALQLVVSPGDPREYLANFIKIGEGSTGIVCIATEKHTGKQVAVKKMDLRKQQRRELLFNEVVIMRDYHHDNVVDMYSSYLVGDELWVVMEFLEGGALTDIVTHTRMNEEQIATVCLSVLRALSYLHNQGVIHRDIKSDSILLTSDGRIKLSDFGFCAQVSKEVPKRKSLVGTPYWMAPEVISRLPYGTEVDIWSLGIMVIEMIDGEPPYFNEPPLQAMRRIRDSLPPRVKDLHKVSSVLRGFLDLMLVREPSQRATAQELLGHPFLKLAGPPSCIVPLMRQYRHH

AKT3 (human) = AKT3 (human) (UniProt Q9Y243)
IRAK1 (human) = IRAK1 (human) (UniProt P51617)
PBK (human) = PBK (human) (UniProt Q96KB5)
TEK (human) = TEK (human) (UniProt Q02763)
EPHA7 (human) = EPHA7 (human) (UniProt Q15375)
MUSK (human) = MUSK (human) (UniProt O15146)
[1] = test system: MAP2K6 (human), P52564 [S207E/T211E]
EPHA8 (human) = EPHA8 (human) (UniProt P29322)
CLK4 (human) = CLK4 (human) (UniProt Q9HAZ1)
RPS6KA2 KD1 KD2 (human) = RPS6KA2 KD1 KD2 (human) (UniProt Q15349)
CSF1R (human) = CSF1R (human) (UniProt P07333)
CAMK4 (human) = CAMK4 (human) (UniProt Q16566)
CDK2 CCNA2 (human) = CDK2 CCNA2 (human) (UniProt P24941+P20248)
CSNK2A2 (human) = CSNK2A2 (human) (UniProt P19784)
MARK2 (human) = MARK2 (human) (UniProt Q7KZI7)
TGFBR1 (human) = TGFBR1 (human) (UniProt P36897)
TYRO3 (human) = TYRO3 (human) (UniProt Q06418)
PRKX (human) = PRKX (human) (UniProt P51817)
SRMS (human) = SRMS (human) (UniProt Q9H3Y6)
CDK1 CCNB1 (human) = CDK1 CCNB1 (human) (UniProt P06493+P14635)
CSNK1G2 (human) = CSNK1G2 (human) (UniProt P78368)
CSNK1G2 (human), sequence (P78368 whole entry, looked up): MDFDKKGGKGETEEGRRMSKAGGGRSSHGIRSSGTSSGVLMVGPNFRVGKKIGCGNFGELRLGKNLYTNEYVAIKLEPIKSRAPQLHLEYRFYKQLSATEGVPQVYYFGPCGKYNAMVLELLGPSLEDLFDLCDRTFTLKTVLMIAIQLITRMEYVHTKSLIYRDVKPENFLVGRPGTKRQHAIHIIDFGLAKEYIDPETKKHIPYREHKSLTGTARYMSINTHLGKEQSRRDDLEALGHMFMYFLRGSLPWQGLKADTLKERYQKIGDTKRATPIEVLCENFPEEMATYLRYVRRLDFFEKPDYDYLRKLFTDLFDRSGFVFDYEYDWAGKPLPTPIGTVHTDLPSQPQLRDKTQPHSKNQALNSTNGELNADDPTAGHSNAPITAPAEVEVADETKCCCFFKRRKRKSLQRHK

LYN (human) = LYN (human) (UniProt P07948)
STK39 (human) = STK39 (human) (UniProt Q9UEW8)
CDK3 CCNE1 (human) = CDK3 CCNE1 (human) (UniProt Q00526+P24864)
EPHB2 (human) = EPHB2 (human) (UniProt P29323)
EPHB2 (human), sequence (P29323 whole entry, looked up): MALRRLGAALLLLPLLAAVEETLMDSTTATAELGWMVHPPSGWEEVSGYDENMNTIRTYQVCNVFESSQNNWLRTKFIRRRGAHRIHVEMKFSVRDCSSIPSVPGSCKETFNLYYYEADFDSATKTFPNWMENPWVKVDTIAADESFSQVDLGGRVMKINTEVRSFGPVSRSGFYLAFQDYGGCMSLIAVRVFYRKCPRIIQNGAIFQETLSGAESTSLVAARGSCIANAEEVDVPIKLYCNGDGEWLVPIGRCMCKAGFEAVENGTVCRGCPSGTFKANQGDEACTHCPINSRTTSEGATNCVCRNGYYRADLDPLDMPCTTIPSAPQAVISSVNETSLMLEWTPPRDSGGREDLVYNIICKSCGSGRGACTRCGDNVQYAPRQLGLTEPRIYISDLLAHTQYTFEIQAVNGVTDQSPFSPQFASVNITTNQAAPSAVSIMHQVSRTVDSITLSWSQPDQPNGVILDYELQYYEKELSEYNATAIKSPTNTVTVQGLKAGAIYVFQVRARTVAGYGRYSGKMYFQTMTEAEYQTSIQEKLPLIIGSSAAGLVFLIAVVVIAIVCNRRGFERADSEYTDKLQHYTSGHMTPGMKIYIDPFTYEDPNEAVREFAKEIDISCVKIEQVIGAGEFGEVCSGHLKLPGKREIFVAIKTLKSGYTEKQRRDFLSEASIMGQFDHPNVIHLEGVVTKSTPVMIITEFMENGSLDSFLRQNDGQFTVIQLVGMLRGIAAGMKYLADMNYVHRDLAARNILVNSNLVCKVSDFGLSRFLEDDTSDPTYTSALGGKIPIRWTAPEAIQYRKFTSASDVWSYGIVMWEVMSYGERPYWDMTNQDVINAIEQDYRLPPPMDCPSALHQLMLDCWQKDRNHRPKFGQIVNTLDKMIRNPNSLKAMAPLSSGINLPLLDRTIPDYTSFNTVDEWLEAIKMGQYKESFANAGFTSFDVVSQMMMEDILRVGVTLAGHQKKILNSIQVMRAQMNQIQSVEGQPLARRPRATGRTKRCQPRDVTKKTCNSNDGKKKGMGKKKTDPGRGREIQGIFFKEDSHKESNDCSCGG

MAPK1 (human) = MAPK1 (human) (UniProt P28482)
TAOK1 (human) = TAOK1 (human) (UniProt Q7L7X3)
DYRK3 (human) = DYRK3 (human) (UniProt O43781)
PLK2 (human) = PLK2 (human) (UniProt Q9NYY3)
PLK2 (human), sequence (Q9NYY3 whole entry, looked up): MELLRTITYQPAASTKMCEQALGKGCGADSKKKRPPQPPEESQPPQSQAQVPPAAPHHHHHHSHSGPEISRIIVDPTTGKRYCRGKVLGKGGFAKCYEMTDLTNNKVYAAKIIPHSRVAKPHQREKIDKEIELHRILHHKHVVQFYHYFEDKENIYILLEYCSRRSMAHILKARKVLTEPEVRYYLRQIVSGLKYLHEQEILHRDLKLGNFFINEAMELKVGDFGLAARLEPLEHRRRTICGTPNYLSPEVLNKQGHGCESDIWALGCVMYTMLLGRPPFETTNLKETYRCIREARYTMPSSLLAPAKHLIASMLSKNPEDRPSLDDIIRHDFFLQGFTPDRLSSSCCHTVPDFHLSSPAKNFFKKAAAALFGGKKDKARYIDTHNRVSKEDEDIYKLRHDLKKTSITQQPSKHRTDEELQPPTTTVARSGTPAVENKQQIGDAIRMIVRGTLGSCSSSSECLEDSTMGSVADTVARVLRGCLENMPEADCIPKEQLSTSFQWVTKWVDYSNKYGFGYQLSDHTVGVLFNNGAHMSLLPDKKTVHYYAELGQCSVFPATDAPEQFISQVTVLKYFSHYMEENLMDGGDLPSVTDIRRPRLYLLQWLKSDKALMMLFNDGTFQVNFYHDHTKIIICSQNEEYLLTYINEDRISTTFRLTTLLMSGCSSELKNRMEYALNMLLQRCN

PAK3 (human) = PAK3 (human) (UniProt O75914)
PAK3 (human), sequence (O75914 whole entry, looked up): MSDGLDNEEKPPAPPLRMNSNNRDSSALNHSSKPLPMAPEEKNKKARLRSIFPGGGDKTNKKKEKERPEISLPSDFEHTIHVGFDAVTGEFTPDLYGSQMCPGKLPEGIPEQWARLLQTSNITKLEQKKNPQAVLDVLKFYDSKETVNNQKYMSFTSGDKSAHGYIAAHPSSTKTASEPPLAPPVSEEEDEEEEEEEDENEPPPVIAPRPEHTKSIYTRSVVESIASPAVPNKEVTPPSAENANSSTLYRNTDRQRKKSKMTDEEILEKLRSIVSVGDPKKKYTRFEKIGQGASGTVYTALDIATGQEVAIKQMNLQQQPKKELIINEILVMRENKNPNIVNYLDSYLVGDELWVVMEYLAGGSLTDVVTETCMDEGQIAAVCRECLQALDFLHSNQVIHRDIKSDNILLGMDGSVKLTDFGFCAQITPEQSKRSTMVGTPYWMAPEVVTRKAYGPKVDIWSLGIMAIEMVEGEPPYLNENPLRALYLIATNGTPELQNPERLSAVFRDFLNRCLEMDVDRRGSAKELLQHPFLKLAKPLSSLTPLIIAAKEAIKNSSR

PRKG2 (human) = PRKG2 (human) (UniProt Q13237)
PRKG2 (human), sequence (Q13237 whole entry, looked up): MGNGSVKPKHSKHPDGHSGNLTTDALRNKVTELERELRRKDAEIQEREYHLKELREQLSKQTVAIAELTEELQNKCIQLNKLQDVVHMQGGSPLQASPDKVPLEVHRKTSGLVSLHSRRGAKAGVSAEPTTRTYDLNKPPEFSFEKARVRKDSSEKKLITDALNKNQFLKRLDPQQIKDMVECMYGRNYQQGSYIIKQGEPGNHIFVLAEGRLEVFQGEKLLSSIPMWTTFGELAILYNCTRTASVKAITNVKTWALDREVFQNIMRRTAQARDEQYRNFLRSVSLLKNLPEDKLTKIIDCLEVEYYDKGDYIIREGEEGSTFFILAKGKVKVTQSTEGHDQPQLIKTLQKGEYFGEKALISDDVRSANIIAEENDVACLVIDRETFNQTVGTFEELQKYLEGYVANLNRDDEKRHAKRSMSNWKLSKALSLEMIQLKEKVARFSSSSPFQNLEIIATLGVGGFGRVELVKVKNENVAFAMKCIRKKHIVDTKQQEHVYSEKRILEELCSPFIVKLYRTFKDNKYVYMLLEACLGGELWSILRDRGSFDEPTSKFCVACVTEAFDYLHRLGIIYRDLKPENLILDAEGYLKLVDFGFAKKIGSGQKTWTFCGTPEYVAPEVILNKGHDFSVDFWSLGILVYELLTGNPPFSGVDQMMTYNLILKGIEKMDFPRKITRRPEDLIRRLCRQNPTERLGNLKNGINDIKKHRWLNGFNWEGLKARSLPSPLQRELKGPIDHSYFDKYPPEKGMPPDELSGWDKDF

CHEK2 (human) = CHEK2 (human) (UniProt O96017)
FER (human) = FER (human) (UniProt P16591)
FER (human), sequence (P16591 whole entry, looked up): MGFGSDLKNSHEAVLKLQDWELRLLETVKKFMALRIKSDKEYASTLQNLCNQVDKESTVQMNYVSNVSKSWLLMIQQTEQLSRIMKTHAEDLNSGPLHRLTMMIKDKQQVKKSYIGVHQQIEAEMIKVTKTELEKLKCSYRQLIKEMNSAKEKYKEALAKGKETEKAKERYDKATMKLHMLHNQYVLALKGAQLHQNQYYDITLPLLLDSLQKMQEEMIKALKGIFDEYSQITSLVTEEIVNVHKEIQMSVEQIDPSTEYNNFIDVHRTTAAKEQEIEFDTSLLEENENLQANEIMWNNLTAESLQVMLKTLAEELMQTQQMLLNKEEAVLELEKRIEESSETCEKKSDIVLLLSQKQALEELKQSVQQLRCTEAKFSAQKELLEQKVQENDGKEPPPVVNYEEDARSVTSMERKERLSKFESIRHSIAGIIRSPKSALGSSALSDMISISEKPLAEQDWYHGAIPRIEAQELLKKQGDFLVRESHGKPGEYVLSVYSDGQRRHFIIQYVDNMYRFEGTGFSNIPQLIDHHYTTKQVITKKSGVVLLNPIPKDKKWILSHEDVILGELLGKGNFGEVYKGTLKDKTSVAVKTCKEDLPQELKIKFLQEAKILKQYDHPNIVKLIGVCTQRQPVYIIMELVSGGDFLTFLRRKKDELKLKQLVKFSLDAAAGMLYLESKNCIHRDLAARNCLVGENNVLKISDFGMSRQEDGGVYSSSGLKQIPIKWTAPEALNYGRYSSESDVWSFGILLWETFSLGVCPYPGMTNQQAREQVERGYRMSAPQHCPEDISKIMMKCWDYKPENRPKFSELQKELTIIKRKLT

SMILES: COc1ccc(C(=O)Nc2sc3c(c2C(N)=O)CCCC3)cc1OC
- residual activity (CDK4 CCND1 (human)): 95.9%
- residual activity (ACVRL1 (human)): 110%
- residual activity (ROS1 (human)): 78.8%
- residual activity (MAP3K5 (human)): 94.8%
- residual activity (ULK1 (human)): 96%
- residual activity (NUAK1 (human)): 81.8%
- residual activity (STK3 (human)): 99.6%
- residual activity (PHKG2 (human)): 106%
- residual activity (PAK7 (human)): 96.6%
- residual activity (AKT3 (human)): 102%
- residual activity (IRAK1 (human)): 79.8%
- residual activity (PBK (human)): 103%
- residual activity (TEK (human)): 96.4%
- residual activity (EPHA7 (human)): 96.2%
- residual activity (MUSK (human)): 79.4%
- residual activity [1]: 114%
- residual activity (EPHA8 (human)): 114%
- residual activity (CLK4 (human)): 86.8%
- residual activity (RPS6KA2 KD1 KD2 (human)): 112%
- residual activity (CSF1R (human)): 90.2%
- residual activity (CAMK4 (human)): 95.7%
- residual activity (CDK2 CCNA2 (human)): 103%
- residual activity (CSNK2A2 (human)): 104%
- residual activity (MARK2 (human)): 98.7%
- residual activity (TGFBR1 (human)): 95.8%
- residual activity (TYRO3 (human)): 98.1%
- residual activity (PRKX (human)): 101%
- residual activity (SRMS (human)): 91%
- residual activity (CDK1 CCNB1 (human)): 94.3%
- residual activity (CSNK1G2 (human)): 98.7%
- residual activity (LYN (human)): 93.5% and 95.9%
- residual activity (STK39 (human)): 101%
- residual activity (CDK3 CCNE1 (human)): 104%
- residual activity (EPHB2 (human)): 73.5%
- residual activity (MAPK1 (human)): 91.2%
- residual activity (TAOK1 (human)): 95.5%
- residual activity (DYRK3 (human)): 98%
- residual activity (PLK2 (human)): 106%
- residual activity (PAK3 (human)): 96.2%
- residual activity (PRKG2 (human)): 104%
- residual activity (CHEK2 (human)): 93%
- residual activity (FER (human)): 89.8%

SMILES: Cn1c2ccccc2c2c3c(c4c5ccccc5n(CCC#N)c4c21)CNC3=O
- residual activity (CDK4 CCND1 (human)): 27.5%
- residual activity (ACVRL1 (human)): 73.6%
- residual activity (ROS1 (human)): 1.18%
- residual activity (MAP3K5 (human)): 49.8%
- residual activity (ULK1 (human)): 106%
- residual activity (NUAK1 (human)): 3.86%
- residual activity (STK3 (human)): 3.07%
- residual activity (PHKG2 (human)): 8.4%
- residual activity (PAK7 (human)): 37.1%
- residual activity (AKT3 (human)): 85.3%
- residual activity (IRAK1 (human)): 6.43%
- residual activity (PBK (human)): 84.2%
- residual activity (TEK (human)): 104%
- residual activity (EPHA7 (human)): 62.6%
- residual activity (MUSK (human)): 34.8%
- residual activity [1]: 21.1%
- residual activity (EPHA8 (human)): 91.7%
- residual activity (CLK4 (human)): 66.2%
- residual activity (RPS6KA2 KD1 KD2 (human)): 0.299%
- residual activity (CSF1R (human)): 84.1%
- residual activity (CAMK4 (human)): 88.1%
- residual activity (CDK2 CCNA2 (human)): 20.8%
- residual activity (CSNK2A2 (human)): 104%
- residual activity (MARK2 (human)): 11.8%
- residual activity (TGFBR1 (human)): 104%
- residual activity (TYRO3 (human)): 85.6%
- residual activity (PRKX (human)): 60.1%
- residual activity (SRMS (human)): 96.6%
- residual activity (CDK1 CCNB1 (human)): 38.7%
- residual activity (CSNK1G2 (human)): 105%
- residual activity (LYN (human)): 90.3% and 94.4%
- residual activity (STK39 (human)): 96.7%
- residual activity (CDK3 CCNE1 (human)): 65.2%
- residual activity (EPHB2 (human)): 77.7%
- residual activity (MAPK1 (human)): 104%
- residual activity (TAOK1 (human)): 43.9%
- residual activity (DYRK3 (human)): 83.9%
- residual activity (PLK2 (human)): 105%
- residual activity (PAK3 (human)): 122%
- residual activity (PRKG2 (human)): 28.2%
- residual activity (CHEK2 (human)): 50.2%
- residual activity (FER (human)): 5.9%

SMILES: Cc1nc(-c2ccccc2)c(-c2ccncc2)o1
- residual activity (CDK4 CCND1 (human)): 114%
- residual activity (ACVRL1 (human)): 95.9%
- residual activity (ROS1 (human)): 96%
- residual activity (MAP3K5 (human)): 102%
- residual activity (ULK1 (human)): 84.6%
- residual activity (NUAK1 (human)): 100%
- residual activity (STK3 (human)): 104%
- residual activity (PHKG2 (human)): 97.6%
- residual activity (PAK7 (human)): 96.1%
- residual activity (AKT3 (human)): 106%
- residual activity (IRAK1 (human)): 124%
- residual activity (PBK (human)): 110%
- residual activity (TEK (human)): 101%
- residual activity (EPHA7 (human)): 91.5%
- residual activity (MUSK (human)): 95.9%
- residual activity [1]: 99.3%
- residual activity (EPHA8 (human)): 78.8%
- residual activity (CLK4 (human)): 121%
- residual activity (RPS6KA2 KD1 KD2 (human)): 93%
- residual activity (CSF1R (human)): 104%
- residual activity (CAMK4 (human)): 97.2%
- residual activity (CDK2 CCNA2 (human)): 104%
- residual activity (CSNK2A2 (human)): 89.8%
- residual activity (MARK2 (human)): 94.3%
- residual activity (TGFBR1 (human)): 102%
- residual activity (TYRO3 (human)): 109%
- residual activity (PRKX (human)): 101%
- residual activity (SRMS (human)): 102%
- residual activity (CDK1 CCNB1 (human)): 90.8%
- residual activity (CSNK1G2 (human)): 92.2%
- residual activity (LYN (human)): 104% and 97.4%
- residual activity (STK39 (human)): 97.1%
- residual activity (CDK3 CCNE1 (human)): 98.1%
- residual activity (EPHB2 (human)): 99.8%
- residual activity (MAPK1 (human)): 90.3%
- residual activity (TAOK1 (human)): 98.5%
- residual activity (DYRK3 (human)): 105%
- residual activity (PLK2 (human)): 106%
- residual activity (PAK3 (human)): 100%
- residual activity (PRKG2 (human)): 85%
- residual activity (CHEK2 (human)): 96.6%
- residual activity (FER (human)): 84.9%
